Laboratory results taken from patent publication US9499493B2, “2,4-pyrimidinediamine compounds and their uses” (Rigel Pharmaceuticals, Inc., priority 2002, dated 2016).

How the values were obtained:
[1] = Mouse model of allergic asthma (ovalbumin); format: in vivo; conditions: data not shown
Source text: Mice are sensitized to ovalbumin (chicken protein) in the presence of an adjuvant (Alum) by the intraperitoneal route on day 0 and day 7. One week later, mice are challenged intranasally with ovalbumin on Days 14, 15 and 16 (more stringent model) or on Day 14 (less stringent model). This sensitization and challenge regimen leads to airway hyperresponsiveness and inflammation in the lungs, which are two dominant characteristics of human allergic asthma. In the mouse model, the in vivo airway responses are measured using a whole body plethysmograph which determines the PENH (enhanced Pause, Buxco Electronics). The PENH is a dimensionless value comprised of the peak inspiratory flow (PIF), peak expiratory flow (PEF), time of inspiration, time of expiration and relaxation time, and is considered a validated parameter of airway responsiveness. Responses to allergen challenge (OVA) are compared with animals challenged with saline only. Twenty-four hours after challenge, mice are exposed to increasing doses of methacholine (muscarinic receptor agonist) which results in smooth muscle contraction. […] In addition, a cellular infiltrate in the airway is observed in ovalbumin challenged mice when compared with the saline challenged mice. This cellular infiltrate is mainly characterized by eosinophils, but a smaller influx of neutrophils and mononuclear cells is also present.
The use of this model for the evaluation of small molecule inhibitors of mast cell degranulation has been validated is several ways. First, using mast cell deficient mice (W/W^v) it has been shown that the ovalbumin-induced responses are dependent upon the presence of mast cells.

[2] = test system: cultured human mast cells (CHMC); test: CHMC high cell density IgE activation: TNFalpha; format: cell-based; conditions: anti-IgE activation; read-out: CHMC high density TNF-alpha
Experimental: (§1) Inhibition of degranulation was measured at both low and high cell density by quantifying the release of the granule specific factors tryptase, histamine and hexosaminidase. Inhibition of release and/or synthesis of lipid mediators was assessed by measuring the release of leukotriene LTC4 and inhibition of release and/or synthesis of cytokines was monitored by quantifying TNF-α, IL-6 and IL-13. Tryptase and hexosaminidase were quantified using fluorogenic substrates as described in their respective examples. […] The protocols of the various assays are provided below.
(§2) After sensitizing, cells are counted, pelleted (1000 rpm, 5-10 minutes), and resuspended at 1-2×10^6 cells/ml in MT buffer. Add 100 ul of cell suspension to each well and 100 ul of compound dilutions. The final vehicle concentration is 0.5% DMSO. Incubate at 37° C. (5% CO2) for 1 hour. After 1 hour of compound treatment, stimulate cells with 6× anti-IgE. Mix wells with the cells and allow plates to incubate at 37° C. (5% CO2) for one hour. After 1 hour incubation, pellet cells (10 minutes, 1000 RPM) and collect 200 ul per well of the supernatant, being careful not to disturb pellet. Place the supernatant plate on ice. During the 7-hour step (see next) perform tryptase assay on supernatant that had been diluted 1:500. Resuspend cell pellet in 240 ul of CM media containing 0.5% DMSO and corresponding concentration of compound. Incubate CHMC cells for 7 hours at 37° C. (5% CO2). After incubation, pellet cells (1000 RPM, 10 minutes) and collect 225 ul per well and place in −80° C. until ready to perform ELISAS. ELISAS are performed on appropriately diluted samples (determined empirically for each donor cell population so that the sample measurement falls within the standard curve) following the supplier's instructions.

[3] = test system: cultured human mast cells (CHMC); test: CHMC high cell density IgE activation: LTC4; format: cell-based; conditions: anti-IgE activation
Experimental: as §1, §2

[4] = test system: cultured human mast cells (CHMC); test: CHMC high cell density IgE activation: IL-13; format: cell-based; conditions: anti-IgE activation
Experimental: as §1, §2

[5] = test system: cultured human mast cells (CHMC); test: CHMC low cell density ionomycin activation: tryptase assay; format: cell-based
[6] = test system: cultured human mast cells (CHMC); test: CHMC high cell density IgE activation: histamine; format: cell-based; conditions: anti-IgE activation
Experimental: as §1, §2

[7] = test system: cultured human mast cells (CHMC); test: CHMC low cell density IgE activation: tryptase assay; format: cell-based; conditions: anti-IgE
Outline: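 Read-out: tryptase released into supernatant, measured by substrate turnover over 30 min at RT. Low-density CHMC (1000-1500 cells/well, per donor degranulation activity) in MT buffer, 1 hr at 37° C, then anti-IgE challenge 30 min at 37° C.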

[8] = test system: cultured human mast cells (CHMC); test: CHMC low cell density IgE activation: LTC4 assay; format: cell-based; conditions: anti-IgE
Experimental: Pellet CHMC cells (980 rpm, 10 min) and resuspend in pre-warmed MT. Add 65 ul of cells to each 96-well plate. Depending on the degranulation activity for each particular CHMC donor, load 1000-1500 cells/well. Mix four times followed by a 1 hr incubation at 37° C. […] Stimulate cells by adding 25 ul of 6× anti-IgE solution to the appropriate plates. Add 25 ul MT to un-stimulated control wells. Mix twice following addition of the anti-IgE. Incubate at 37° C. for 30 minutes. […] Spin plates at 1000 rpm for 10 min to pellet cells. Transfer 25 ul of supernatant to a 96-well black bottom plate and add 100 ul of freshly diluted tryptase substrate solution to each well. Incubate plates at room temperature for 30 min.
Leukotriene C4 (LTC4) is also quantified using an ELISA kit on appropriately diluted supernatant samples (determined empirically for each donor cell population so that the sample measurement falls within the standard curve) following the supplier's instructions.

[9] = test system: cultured human mast cells (CHMC); test: CHMC high cell density IgE activation: hexos (hexosaminidase) release; format: cell-based; conditions: anti-IgE activation
Experimental: as §1, §2

[10] = test system: cultured human mast cells (CHMC); test: CHMC high cell density IgE activation: tryptase; format: cell-based; conditions: anti-IgE activation
Experimental: as §2

[11] = test system: Jurkat cells; test: Jurkat toxicity, Cell Titer Glo assay; format: cell-based; conditions: 18 hours incubation
Experimental: Seed 50 μl cells (1×10^6/ml) into each well containing 50 μl compound. […] Shake plates for 1 minute to mix cells and compound. Incubate plates at 37° C. […] Next day, harvest 50 μl cells from each well, add to 50 μl Cell Titer Glo reagent ([…]). Shake plates for 1 minute. Read on luminometer.

[12] = test system: bone marrow derived mast cells (BMMC); test: BMMC high cell density IgE activation: hexosaminidase; format: cell-based, mouse; conditions: anti-IgE, second part of TABLE 1, read-out: BMMC anti-IgE hexos. IC50
Experimental: (§3) After sensitizing, cells are counted, pelleted (1000 rpm, 5-10 minutes), and resuspended at 1-3×10^6 cells/ml in MT buffer. Add 100 ul of cell suspension to each well and 100 ul of compound dilutions. The final vehicle concentration is 0.5% DMSO. Incubate at 37° C. (5% CO2) for 1 hour. After 1 hour of compound treatment, stimulate cells with 6× stimulus (60 ng/ml DNP-BSA). Mix wells with the cells and allow plates to incubate at 37° C. (5% CO2) for one hour. After 1 hour incubation, pellet cells (10 minutes, 1000 RPM) and collect 200 ul per well of the supernatant, being careful not to disturb pellet, and transfer to a clean tube or 96-well plate. Place the supernatant plate on ice. During the 4-5 hour step (see next) perform the hexosiminidase assay. Resuspend cell pellet in 240 ul WEI-conditioned media containing 0.5% DMSO and corresponding concentration of compound. Incubate BMMC cells for 4-5 hours at 37° C. (5% CO2). After incubation, pellet cells (1000 RPM, 10 minutes) and collect 225 ul per well and place in −80° C. until ready to perform ELISAS. ELISAS are performed on appropriately diluted samples (determined empirically for each donor cell population so that the sample measurement falls within the standard curve) following the supplier's instructions.
Hexosaminidase assay: In a solid black 96-well assay plate, add 50 uL hexosaminidase substrate (4-methylumbelliferyl-N-acetyl-(3-D-glucosaminide; 2 mM) to each well. Add 50 uL of BMMC cell supernatant (see above) to the hexoseaminidase substrate, place at 37° C. for 30 minutes and read the plate at 5, 10, 15, and 30 minutes on a spectrophotometer.

[13] = test system: bone marrow derived mast cells (BMMC); test: BMMC high cell density IgE activation: histamine; format: cell-based, mouse; conditions: anti-IgE, second part of TABLE 1
Experimental: as §1, §3

[14] = test system: bone marrow derived mast cells (BMMC); test: BMMC high cell density IgE activation: TNFalpha; format: cell-based, mouse; conditions: anti-IgE, second part of TABLE 1, read-out: BMMC anti-IgE TNF-alpha IC50
Experimental: as §1, §3

[15] = test system: bone marrow derived mast cells (BMMC); test: BMMC high cell density IgE activation: IL-6; format: cell-based, mouse; conditions: anti-IgE, second part of TABLE 1
Experimental: as §1, §3

[16] = test system: bone marrow derived mast cells (BMMC); test: BMMC high cell density IgE activation: LTC4; format: cell-based, mouse; conditions: anti-IgE, second part of TABLE 1
Experimental: as §1, §3

[17] = Pharmacokinetics / oral bioavailability in rats; format: in vivo; conditions: rats
Experimental: Over 50 2,4-pyrimidinediamine compounds of the invention were tested for oral bioavailability. For the study, compounds were dissolved in various vehicles (e.g. PEG 400 solution and CMC suspension) for intravenous and oral dosing in the rats. Following administration of the drug, plasma samples were obtained and extracted. The plasma concentrations of the compounds were determined by high performance liquid chromatography/tandem mass spectrometry (LC/MS/MS) methods. Pharmacokinetic analyses were performed based on the plasma concentration data. The pharmacokinetic parameters of interest include Clearance (CL), Volume of distribution at steady-state (Vss), terminal half-life (t1/2), and oral bioavailability (% F).

[18] = test system: FcγRI-mediated degranulation; test: FcγRI receptor-mediated degranulation (activation with anti-human IgG Fab fragment); format: cell-based; conditions: cells not primed with IgE, activated with rabbit anti-human IgG Fab fragment

SMILES	IC50 [5]	IC50 [7]	IC50 [11]	IC50 [12]	IC50 [13]	IC50 [15]	oral bioavailabilities and half-lives (in words) [17]	FcγRI-mediated degranulation (in words) [18]	further results
O=C(O)c1cc(=O)c2c(OCC(O)COc3cccc4oc(C(=O)O)cc(=O)c34)cccc2o1 [Cromolyn]									ovalbumin-induced airway hyperresponsiveness and inflammation [1]: able to block
O=C(c1cc2cc(Nc3ncc(F)c(Nc4cccc(O)c4)n3)ccc2o1)N1CCOCC1 [R926488, 5-Fluoro-N4-(3-hydroxyphenyl)-N2-[2-(N-morpholino)carbonylbenzofuran-5-yl]-2,4-pyrimidinediamine]	> 10000 nM	331 nM							IC50 [2]: 2440 nM; IC50 [3]: 201 nM; IC50 [4]: 1010 nM; IC50 [6]: 792 nM; IC50 [8]: 752 nM; IC50 [9]: 521 nM; IC50 [10]: 623 nM
O=C(COc1cccc(Nc2ncc(F)c(Nc3ccc4c(c3)OCCO4)n2)c1)NCCO [R926505, N4-(3,4-Ethylenedioxyphenyl)-5-fluoro-N2-[3-(2-hydroxyethylamino)carbonylmethyleneoxyphenyl]-2,4-pyrimidinediamine]	> 10000 nM	145 nM	4200 nM	< 220 nM	< 220 nM	< 220 nM			IC50 [14]: < 220 nM; IC50 [16]: < 220 nM
CNCCOc1cccc(Nc2ncc(F)c(Nc3ccc4c(c3)OCCO4)n2)c1 [R926510, N4-(3,4-Ethylenedioxyphenyl)-5-fluoro-N2-[3-[2-(N-methylamino)ethyleneoxy]phenyl]-2,4-pyrimidinediamine]	> 10000 nM	440 nM	2770 nM						IC50 [3]: 417 nM; IC50 [4]: 686 nM; IC50 [6]: 1670 nM; IC50 [9]: 921 nM; IC50 [10]: 1120 nM
COc1cc(Nc2ncc(F)c(Nc3cccc(O)c3)n2)cc(OC)c1 [R926780, N2-(3.5-Dimethoxyphenyl)-5-fluoro-N4-(3-hydroxyphenyl)-2,4-pyrimidinediamine]	> 10000 nM		> 5000 nM	< 220 nM	< 220 nM	< 220 nM			IC50 [14]: < 220 nM; IC50 [16]: 461 nM
COc1cc(Nc2ncc(F)c(Nc3ccc4c(c3)NC(=O)C(C)(C)O4)n2)cc(OC)c1 [R927050]							good	inhibit FcγRI-mediated degranulation	
Cn1ncc2cc(Nc3ncc(F)c(Nc4ccc5c(c4)OCCO5)n3)ccc21 [R935193, N4-(3,4-Ethylenedioxyphenyl)-5-fluoro-N2-(1-methyl-indazoline-5-yl)-2,4-pyrimidinediamine]	> 10000 nM	136 nM		80 nM	48 nM	37 nM	good		
Fc1cnc(Nc2ccc3cn[nH]c3c2)nc1Nc1ccc(Cl)c(Cl)c1 [R935372, N4-(3,4-Dichlorophenyl)-5-fluoro-N2-(indazoline-6-yl)-2,4-pyrimidinediamine]	> 10000 nM	60 nM					good	inhibit FcγRI-mediated degranulation	
OCCCn1ncc2cc(Nc3ncc(F)c(Nc4ccc(Cl)c(Cl)c4)n3)ccc21 [R935391]							good		
CC1(C)Oc2ccc(Nc3ncc(F)c(Nc4ccc5c(c4)NC(=O)C(C)(C)O5)n3)cc2NC1=O [R940350, N2,N4-[(2,2-Dimethyl-4H-benzo[1,4]oxazin-3-one)-6-yl]-5-fluoro-2,4-pyrimidinediamine]	4000 nM						good	inhibit FcγRI-mediated degranulation	
